How the values were obtained:
CYP2B6 mRNA = assay: CYP induction in human hepatocytes, CYP2B6 mRNA (RT-PCR)
Protocol: […] […] […] Enzyme activity for each CYP isoform was reported as a fold change over vehicle control and the percent of positive control (detailed calculation in Supplementary 1.1). Hepatocytes were harvested with a lysis buffer from RNeasy 96 Kit (Qiagen Inc., Germantown, MD, USA) to isolate RNA, which was analyzed by real-time quantitative polymerase chain reaction (RT-PCR). […] Emax (the maximal observed induction) and EC50 (the concentration that supports half-maximal induction) were estimated by non-linear regression of fold increase in CYP mRNA expression versus concentration plots.
% of positive control = [(fold change in treated sample)-1] / [(fold change in positive control)-1] × 100
Based on the gene expression, a minimum of 4-fold increase of positive control compared to vehicle control, a minimum of 2-fold increase of the test article compared vehicle control and increased in a concentration-dependent manner was considered as the cutoff for a positive signal in in vitro induction assay.

MATE1 = target: T1, MATE1 (Homo sapiens, UniProt Q96FL8); assay: MATE1 inhibition, tetraethylammonium uptake in transfected HEK293 cells
T1 sequence (Q96FL8 1-570): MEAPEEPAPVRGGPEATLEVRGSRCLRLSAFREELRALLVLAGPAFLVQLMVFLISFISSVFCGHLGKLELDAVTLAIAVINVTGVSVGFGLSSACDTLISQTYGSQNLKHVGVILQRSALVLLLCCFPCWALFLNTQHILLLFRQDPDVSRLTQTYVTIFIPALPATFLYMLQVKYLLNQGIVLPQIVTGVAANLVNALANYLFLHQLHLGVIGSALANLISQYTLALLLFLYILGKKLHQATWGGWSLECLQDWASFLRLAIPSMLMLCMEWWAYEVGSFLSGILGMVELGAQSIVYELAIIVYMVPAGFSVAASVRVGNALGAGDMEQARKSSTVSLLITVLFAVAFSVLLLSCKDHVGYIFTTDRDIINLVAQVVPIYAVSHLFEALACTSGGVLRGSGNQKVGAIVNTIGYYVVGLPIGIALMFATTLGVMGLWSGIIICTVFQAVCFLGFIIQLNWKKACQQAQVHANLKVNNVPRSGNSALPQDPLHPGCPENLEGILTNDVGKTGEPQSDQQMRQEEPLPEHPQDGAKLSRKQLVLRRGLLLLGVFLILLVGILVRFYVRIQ
Protocol: The pre-incubation solutions were removed, and incubation solutions containing the inhibitors and probe substrates (or transport buffer containing an equal volume of vehicle control and probe substrates) were added and incubated at 37°C for 2 min (5 min for OATP1B3). The probe substrate for OAT1 was 4-aminohippuric acid (10 μM), for OAT3 was estrone 3-sulfate (10 μM), for OCT2 was metformin (100 μM), for OATP1B1 was β-estradiol 17-(β-D-glucuronide) (5 μM), for OATP1B3 was β-estradiol 17-(β-D-glucuronide) (10 μM), and for MATE1 and MATE2-K was tetraethylammonium (10 μM). After incubation, cells were washed three times with ice-cold transport buffer (25 mM HEPES, pH 7.4, pH 8.0 for overexpressing MATE1 and MATE2-K HEK293 cells) and lysed in distilled water. The concentrations of probe substrates were determined by LC-MS/MS, and a BCA Kit (Solarbio ®Life Sciences, Beijing, China) was used to determine the protein content in the cell lysate.
where C is the concentration of the drug in the cell lysate (nM), P is the protein concentration of the cell lysate (mg/mL), and T is the incubation time (minute). Uptake ratetest compound is the uptake rate of the substrate in the presence of the test compound. Uptake ratevehicle control is the uptake rate of the substrate in the presence of the vehicle control. Uptake ratepassive is the uptake rate of the substrate in the presence of the positive inhibitor at the top test concentration.

Compound: C[C@H](Nc1ncnc(N)c1C#N)c1cc2ncc(Cl)n2nc1-c1ccccc1 [Amdizalisib]
- R3 value (CYP2B6 induction, basic kinetic model) (CYP2B6 mRNA): ≤ 0.8
- induction on CYP2B6 mRNA expression (CYP2B6 mRNA; 20 uM): >2-fold induction on CYP1A2, 2B6, 3A4, 2C9 mRNA expression at 20 uM
- Gene expression Percent of PC (%) (CYP2B6 mRNA; CYP2B6, donor seven, 1 µM): 9.50%
- Gene expression Percent of PC (%) (CYP2B6 mRNA; CYP2B6, donor seven, 3 µM): 1.70%
- Gene expression Percent of PC (%) (CYP2B6 mRNA; CYP2B6, donor seven, 10 µM): 60.8%
- Gene expression Percent of PC (%) (CYP2B6 mRNA; CYP2B6, donor seven, 20 µM): 22.4%
- Gene expression Percent of PC (%) (CYP2B6 mRNA; CYP2B6, donor seven, 30 µM): 43.7%
- Gene expression Percent of PC (%) (CYP2B6 mRNA; CYP2B6, donor six, 1 µM): 2.50%
- Gene expression Percent of PC (%) (CYP2B6 mRNA; CYP2B6, donor six, 3 µM): 5.50%
- Gene expression Percent of PC (%) (CYP2B6 mRNA; CYP2B6, donor six, 10 µM): 34.3%
- Gene expression Percent of PC (%) (CYP2B6 mRNA; CYP2B6, donor six, 20 µM): 36.8%
- Gene expression Percent of PC (%) (CYP2B6 mRNA; CYP2B6, donor six, 30 µM): 25.2%
- Gene expression Percent of PC (%) (CYP2B6 mRNA; CYP2B6, donor two, 1 µM): 5.40%
- Gene expression Percent of PC (%) (CYP2B6 mRNA; CYP2B6, donor two, 3 µM): 2.30%
- Gene expression Percent of PC (%) (CYP2B6 mRNA; CYP2B6, donor two, 10 µM): 29.6%
- Gene expression Percent of PC (%) (CYP2B6 mRNA; CYP2B6, donor two, 20 µM): 18.1%
- Gene expression Percent of PC (%) (CYP2B6 mRNA; CYP2B6, donor two, 30 µM): 39.0%
- Emax, CYP2B6 expression (CYP2B6 mRNA; donor seven): 5.42 fold
- Emax, CYP2B6 expression (CYP2B6 mRNA; donor six): 7.94 fold
- Emax, CYP2B6 expression (CYP2B6 mRNA; donor two): 3.39 fold
- IC50 (MATE1): 16.2 µM
- calculated R value (MATE-1) (MATE1): < 1.1
- Percentage transported (MATE1; MATE1, compound 0.3 μM): 98.0%
- Uptake rate (MATE1; MATE1, compound 0.3 μM): 244±23.4 pmol/mg protein/min
- Percentage transported (MATE1; MATE1, compound 1 μM): 86.1%
- Uptake rate (MATE1; MATE1, compound 1 μM): 216±1.37 pmol/mg protein/min
- Percentage transported (MATE1; MATE1, compound 3 μM): 73.2%
- Uptake rate (MATE1; MATE1, compound 3 μM): 186±12.4 pmol/mg protein/min
- Percentage transported (MATE1; MATE1, compound 10 μM): 49.2%
- Uptake rate (MATE1; MATE1, compound 10 μM): 129±1.08 pmol/mg protein/min
- Percentage transported (MATE1; MATE1, compound 30 μM): 47.8%
- Uptake rate (MATE1; MATE1, compound 30 μM): 126±22.8 pmol/mg protein/min
- Percentage transported (MATE1; MATE1, compound 100 μM): 23.6%
- Uptake rate (MATE1; MATE1, compound 100 μM): 68.4±2.28 pmol/mg protein/min
- inhibition at 2 min, 0.3 µM (MATE1; human, pH 8): 2.01%
- inhibition at 2 min, 1 µM (MATE1; human, pH 8): 13.9%
- inhibition at 2 min, 3 µM (MATE1; human, pH 8): 26.8%
- inhibition at 2 min, 10 µM (MATE1; human, pH 8): 50.8%
- inhibition at 2 min, 30 µM (MATE1; human, pH 8): 52.2%
- inhibition at 2 min, 100 µM (MATE1; human, pH 8): 76.4%
